In US20090306392A1, “GSM INTERMEDIATES” (priority 2007, published 2009):

System: γ-secretase
Assay: Screening for γ-secretase-modulating activity in SKNBE2 cells carrying APP 695-wild type
Assay type: cell-based
Conditions: SKNBE2 cells carrying the APP 695-wild type; for EC50: read-out: EC 50 WTAPP

Compound | EC50 [nM] | also measured
4-Methyl-2-[4′-trifluoromethyl-5-(4-trifluoromethyl-phenylamino)-biphenyl-3-yl]-pentanoic Acid [Example 10] | 280 | 
CCC(c1ccc(C(F)(F)F)cc1)N1CCCC(c2cc(-c3ccc(C(F)(F)F)cc3)cc([C@@H](CC(C)C)C(=O)O)c2)C1 (single isomer, unassigned) [Example 26, (R*)4-Methyl-2-(4′-trifluoromethyl-5-{1-[1-(4-trifluoromethyl-phenyl)-propyl]-piperidin-3-yl}-biphenyl-3-yl)-pentanoic Acid] | 360 | 
CCC(c1ccc(C(F)(F)F)cc1)N1CCCC(c2cc(-c3ccc(C(F)(F)F)cc3)cc([C@H](CC(C)C)C(=O)O)c2)C1 (single isomer, unassigned) [Example 35, (S*)4-Methyl-2-(4′-trifluoromethyl-5-{1-[1-(4-trifluoromethyl-phenyl)-propyl]-piperidin-3-yl}-biphenyl-3-yl)-pentanoic Acid] | 590 | 
CC(C)CCC(c1ccc(C(F)(F)F)cc1)N1CCCC(c2cc(-c3ccc(C(F)(F)F)cc3)cc([C@@H](CC(C)C)C(=O)O)c2)C1 (single isomer, unassigned) [Example 37, (R*)4-Methyl-2-(5-{1-[4-methyl-1-(4-trifluoromethyl-phenyl)-pentyl]-piperidin-3-yl}-4′-trifluoromethyl-biphenyl-3-yl)-pentanoic Acid] |  | % @ 0.3 uM (WTAPP): 44% @ 0.3 uM
CC(C)C[C@@H](C(=O)O)c1cc(OCc2cc(F)cc(F)c2)cc(-c2ccc(C(F)(F)F)cc2)c1 [Example 1, (R)2-[5-(3,5-Difluoro-benzyloxy)-4′-trifluoromethyl-biphenyl-3-yl]-4-methyl-pentanoic Acid] | 530 | 
CC(C)C[C@H](C(=O)O)c1cc(OCc2cc(F)cc(F)c2)cc(-c2ccc(C(F)(F)F)cc2)c1 [Example 2, (S)-2-[5-(3,5-Difluoro-benzyloxy)-4′-trifluoromethyl-biphenyl-3-yl]-4-methyl-pentanoic Acid] | 1520 | 
CC(C)C[C@@H](C(=O)O)c1cc(OCc2ccc(F)cc2C(F)(F)F)cc(-c2ccc(C(F)(F)F)cc2)c1 [Example 3, (R)-2-[5-(4-fluoro-2-trifluoromethyl-benzyloxy)-4′-trifluoromethyl-biphenyl-3-yl]-4-methyl-pentanoic Acid] | 570 | 
CC(C)CC(C(=O)O)c1cc(OCc2cc(F)cc(F)c2)cc(-c2ccc(Cl)c(C(F)(F)F)c2)c1 (stereo not drawn) [Example 4, 2-[4′-Chloro-5-(3,5-difluoro-2-benzyloxy)-3′-trifluoromethyl-biphenyl-3-yl]-4-methyl-pentanoic Acid] | 310 | 
CC(C)CC(C(=O)O)c1cc(Nc2cc(F)cc(F)c2)cc(-c2ccc(C(F)(F)F)cc2)c1 (stereo not drawn) [Example 9, 2-[5-(3,5-Difluoro-phenylamino)-4′-trifluoromethyl-biphenyl-3-yl]-4-methyl-pentanoic Acid] |  | inhibition @ 3 uM (WTAPP): 73% inhibition @ 3 uM
CC(C)CC(C(=O)O)c1cc(Nc2ccc(C(C)C)cc2)cc(-c2ccc(C(F)(F)F)cc2)c1 (stereo not drawn) [Example 11, 2-[5-(4-Isopropyl-phenylamino)-4′-trifluoromethyl-biphenyl-3-yl]-4-methyl-pentanoic Acid] | 290 | 
CC(C)CC(C(=O)O)c1cc(-c2ccc(C(F)(F)F)cc2)cc(N(C)c2ccc(C(F)(F)F)cc2)c1 (stereo not drawn) [Example 13, 4-Methyl-2-{5-[methyl-(4-trifluoromethyl-phenyl)-amino]-4′-trifluoromethyl-biphenyl-3-yl}-pentanoic Acid] |  | % @ 0.3 uM (WTAPP): 21% @ 0.3 uM
CC(C)CC(C(=O)O)c1cc(Oc2cccc(C(C)C)c2)cc(-c2ccc(C(F)(F)F)cc2)c1 (stereo not drawn) [Example 16, 2-[5-(3-Isopropyl-phenoxy)-4′-trifluoromethyl-biphenyl-3-yl]-4-methyl-pentanoic Acid] |  | inhibition @ 3 uM (WTAPP): 64% inhibition @ 3 uM
CC(C)CC(C(=O)O)c1cc(Oc2cc(F)cc(C(F)(F)F)c2)cc(-c2ccc(C(F)(F)F)cc2)c1 (stereo not drawn) [Example 18, 2-[5-(3-Fluoro-5-trifluoromethyl-phenoxy)-4′-trifluoromethyl-biphenyl-3-yl]-4-methyl-pentanoic Acid] | 330 | 
CC(C)CC(C(=O)O)c1cc(-c2ccc(C(F)(F)F)cc2)cc(-c2ccc(C(F)(F)F)cn2)c1 (stereo not drawn) [Example 20, 4-Methyl-2-[4′-trifluoromethyl-5-(5-trifluoromethyl-pyridin-2-yl)-biphenyl-3-yl]-pentanoic Acid] | 320 | 
CC(C)CCC(Oc1cc(-c2ccc(C(F)(F)F)cc2)cc(C(CC(C)C)C(=O)O)c1)c1cc(F)cc(F)c1 (stereo not drawn) [Example 21, 2-{5-[1-(3,5-Difluoro-phenyl)-4-methyl-pentyloxy]-4′-trifluoromethyl-biphenyl-3-yl}-4-methyl-pentanoic Acid] | 230 | 
CC(C)CC(C(=O)O)c1cc(C(=O)c2cc(Cl)cc(Cl)c2)cc(-c2ccc(C(F)(F)F)cc2)c1 (stereo not drawn) [Example 22, 2-[5-(3,5-Dichloro-benzoyl)-4′-trifluoromethyl-biphenyl-3-yl]-4-methyl-pentanoic Acid] | 710 | 

More lines, in order of falling EC50, values ahead:

EC50 [nM] | Compound | also measured
220 | CC(C)CC(C(=O)O)c1cc(-c2ccc(C(F)(F)F)cc2)cc(-c2cc(F)nc(F)c2)c1 (stereo not drawn) [Example 19, 2-[5-(2,6-Difluoro-pyridin-4-yl)-4′-trifluoromethyl-biphenyl-3-yl]-4-methyl-pentanoic Acid] | 
190 | CC(C)CC(C(=O)O)c1cc(-c2ccc(C(F)(F)F)cc2)cc(-c2cc(F)cc(F)c2)c1 (stereo not drawn) [Example 5, 2-(3,5-Difluoro-4″-trifluoromethyl-[1,1′;3′,1″]terphenyl-5′-yl)-4-methyl-pentanoic Acid] | 
170 | CC(C)CCN(c1ccc(C(F)(F)F)cc1)c1cc(-c2ccc(C(F)(F)F)cc2)cc(C(CC(C)C)C(=O)O)c1 (stereo not drawn) [Example 14, 4-Methyl-2-{5-[(3-methyl-butyl)-(4-trifluoromethyl-phenyl)-amino]-4′-trifluoromethyl-biphenyl-3-yl}-pentanoic Acid] | 
150 | CC(C)C[C@@H](C(=O)O)c1cc(Nc2cc(C(F)(F)F)ccc2C(F)(F)F)cc(-c2ccc(C(F)(F)F)cc2)c1 [Example 12, (R)2-[5-(2,5-Bis-trifluoromethyl-phenylamino)-4′-trifluoromethyl-biphenyl-3-yl]-4-methyl-pentanoic Acid] | 
150 | CC(C)CCN(c1ccc(Cl)cc1)c1cc(-c2ccc(C(F)(F)F)cc2)cc(C(CC(C)C)C(=O)O)c1 (stereo not drawn) [Example 15, 2-{5-[(4-Chloro-phenyl)-(3-methyl-butyl)-amino]-4′-trifluoromethyl-biphenyl-3-yl}-4-methyl-pentanoic Acid] | 
140 | CC(C)CC(C(=O)O)c1cc(-c2ccc(C(F)(F)F)cc2)cc(-c2ccc(OC(F)(F)F)c(F)c2)c1 (stereo not drawn) [Example 6, 2-(3-Fluoro-4-trifluoromethoxy-4″-trifluoromethyl-[1,1′;3′,1″]terphenyl-5′-yl)-4-methyl-pentanoic Acid] | 
140 | CC(C)CC(C(=O)O)c1cc(Oc2cc(F)cc(C(F)(F)F)c2)cc(-c2ccc(Cl)c(C(F)(F)F)c2)c1 (stereo not drawn) [Example 17, 4-Methyl-2-[4′-chloro-3′-trifluoromethyl-5-(3-fluoro-5-trifluoromethylphenoxy)-biphenyl-3-yl]-pentanoic Acid] | 
140 | CC(C)CC(C(=O)O)c1cc(/C=C/c2ccc(-c3ccccc3)cc2)cc(-c2ccc(C(F)(F)F)cc2)c1 (stereo not drawn) [Example 23, 2-[5-(2-Biphenyl-4-yl-vinyl)-4′-trifluoromethyl-biphenyl-3-yl]-4-methyl-pentanoic Acid] | 
